Data published in patent publication US10272083B2, “Methods of treating chronic lymphocytic leukemia and small lymphocytic leukemia using a BTK inhibitor” (Acerta Pharma B.V., priority 2014, dated 2019).
Entries after “also recorded” stand apart in the source; their conditions may differ.

Experiments:
[1] = test system: human platelet-mediated thrombus formation; experiment: In vivo human thrombus formation, laser injury, VWF HA1 mice model; conditions: platelets preincubated with BTK inhibitor (0.1, 0.5 or 1 μM)
NK cells = experiment: Antibody-dependent NK cell degranulation, CD107a flow cytometry; assay type: cell-based, human; conditions: rituximab-coated DHL-4 target cells
Th17 cells = experiment: CD4+ T cell skewing culture, Th17; assay type: cell-based; conditions: FIG. 24
Protocol: (§1) Enriched CD4^+ T cells are plated on 24-well culture dishes that have been precoated 2 hr with 250 μL anti-TCRP3 (0.5 μg/mL) plus anti-CD28 (5 μg/mL) at 37° C. in PBS. The cells are then supplemented with media containing BTK inhibitors along with the skewing cytokines as indicated in the following. The Th17 and Treg cultures are grown for 4 days before analysis. The cells are maintained for an additional 3 days with skewing cytokines (Th17; 20 ng/mL IL-6, 0.5 ng/mL TGF-β, […] Treg; 0.5 ng/mL TGF-β, 5 μg/mL IL-4, 5 μg/mL IFN-γ) and are supplemented with IL2 as a growth factor.

[2] = test system: BCR activation markers CD69 and CD86; experiment: In vivo potency: IgM-stimulated BCR activation markers by flow cytometry; conditions: mice gavaged, 3 h post-dose, BCR stimulated with IgM
Protocol: Mice were gavaged at increasing drug concentration and sacrificed at one time point (3 h post-dose). BCR is stimulated with IgM and the expression of activation markers CD69 and CD86 are monitored by flow cytometry to determine EC50's.
CD86 and CD69 are cell surface proteins that are BCR activation markers. […] BCR was stimulated with IgM and the expression of activation marker CD69 and CD86 are monitored by flow cytometry and to determine EC50 values.

EGFR phosphorylation = experiment: In vitro EGFR phosphorylation in A431 cells; assay type: cell-based; conditions: 10 μM, A431 human epidermoid cancer cell line
[3] = test system: regulatory T cell (Treg) development; experiment: CD4+ T cell skewing culture, Treg; assay type: cell-based; conditions: FIG. 25
Protocol: as §1

[4] = test system: platelet collagen receptor glycoprotein VI (GPVI); experiment: GPVI (convulxin-induced) platelet aggregation; assay type: cell-based, human; conditions: for inhibition of GPVI platelet aggregation: FIG. 16 and FIG. 17
Protocol: GPVI platelet aggregation was measured for Formula (II) and ibrutinib. Blood was obtained from untreated humans, and platelets were purified from […] by centrifugation. Cells were resuspended to a final concentration of 350,000/μL in buffer containing 145 mmol/L NaCl, 10 mmol/L HEPES, 0.5 mmol/L Na2HPO4, 5 mmol/L KCl, 2 mmol/L MgCl2, 1 mmol/L CaCl2, and 0.1% glucose, at pH 7.4. Stock solutions of […] were prepared on the day of experimentation and added to platelet suspensions 5 minutes (37° C., 1200 rpm) before the induction of aggregation. Aggregation was assessed with a Chronolog Lumi-Aggregometer (model 540 VS; Chronolog, Havertown, Pa.) and permitted to proceed for 6 minutes after the addition of agonist. The results are reported as maximum percent change in light transmittance from baseline with platelet buffer used as a reference.
In FIG. 17, the results of CVX-induced (250 ng/mL) human platelet aggregation results before and 15 minutes after administration of the BTK inhibitors to 6 healthy individuals are shown.

[5] = Cardiovascular function study in awake telemeterized beagle dogs; assay type: in vivo; conditions: male beagle dogs, single doses through 30 mg/kg
From the text: (§2) Formula (II) was well tolerated in standard in vivo Good Laboratory Practices (GLP) studies of pharmacologic safety.

CYP enzymes = experiment: Nonclinical CYP interaction studies; assay type: in vitro ADME
[6] = test system: 80 known pharmacologic targets such as G-protein-coupled receptors, nuclear receptors, proteases, and ion channels; experiment: Binding assays with 80 known pharmacologic targets; conditions: screened at 10 μM
[7] = Preliminary evaluation of metabolism in plasma, bile and urine; assay type: in vivo; conditions: bile, urine of rats, dogs, monkeys
[8] = In vitro metabolism in hepatocytes with 14C-labeled compound; assay type: in vitro ADME, mouse, rat, dog, rabbit, monkey, and human
[9] = test system: canine spontaneous B-cell lymphoma; experiment: Study of canine spontaneous B-cell lymphoma; assay type: in vivo, dogs; conditions: 2.5 mg/kg once daily oral
From the text: Formula (II) is currently being evaluated in an ongoing study of canine spontaneous B-cell lymphoma. […] To date, partial remission (PR), per Veterinary Cooperative Oncology Group criteria for assessment of response in peripheral nodal lymphoma, has been observed in 2 of 6 dogs. D. M. Vali, et al., Vet. Comp. Oncol. 8, 28-37 (2010). […] L. A. Honigberg, et al., Proc. Nat. Acad. Sci. USA, 107, 13075-13080 (2010).

[10] = test system: NK cells and monocytic MDSC subsets; experiment: Flow cytometry of peripheral blood cell subsets in CLL patients; assay type: in vivo, human; conditions: patients with falling ALC counts, 28 days of dosing
Protocol: PBMCs were stained with monoclonal antibodies conjugated to fluorescent tags (flourochromes) to identify cell subsets via flow cytometry. Non-viable cells were excluded from the analysis using the dye 7-aminoactinomycin D (7-AAD). To produce the metric of percent change, the following steps were taken. First, each cell subset was defined by hierarchical flow cytometry gating. Then, the change in frequency (between day 1 and day 28) was calculated for each cell subset. MDSC subsets were measured as a % of all myeloid cells. T cell subsets were measured as a % of all CD3^+ cells, and NK cells were measured as a % of all live CD45^+ cells. […] A cycle is 28 days. A trend is observed wherein patients with decreasing ALC % had increasing MDSC (monocytic) %. This may include patients who had quickly resolving lymphocytosis and those with no initial lymphocytosis. […] This may include patients who had quickly resolving lymphocytosis and those having no initial lymphocytosis. The effects in FIG. 9 to FIG. 12 are observed in multiple cohorts, at doses including 100 mg BID, 200 mg QD, and 400 mg QD. In FIG. 13 and FIG. 14, the effects on NK cells and MDSC cells are compared to a number of other markers versus % change in ALC at C1D28 and C2D28. These other markers include CD4+ T cells, CD8+ T cells, CD4+/CD8+ T cell ratio, NK-T cells, PD-1+CD4+ T cells, and PD-1+CD8+ T cells. […]

[11] = Study of respiratory function in rats; assay type: in vivo; conditions: doses through 300 mg/kg
From the text: as §2

[12] = Glutathione binding and depletion in vitro
CYP3A4 = CYP3A4 (Homo sapiens, UniProt P08684); experiment: In vitro loss of parent drug as catalyzed by CYPs; assay type: in vitro ADME
CYP3A4, sequence (P08684 whole entry): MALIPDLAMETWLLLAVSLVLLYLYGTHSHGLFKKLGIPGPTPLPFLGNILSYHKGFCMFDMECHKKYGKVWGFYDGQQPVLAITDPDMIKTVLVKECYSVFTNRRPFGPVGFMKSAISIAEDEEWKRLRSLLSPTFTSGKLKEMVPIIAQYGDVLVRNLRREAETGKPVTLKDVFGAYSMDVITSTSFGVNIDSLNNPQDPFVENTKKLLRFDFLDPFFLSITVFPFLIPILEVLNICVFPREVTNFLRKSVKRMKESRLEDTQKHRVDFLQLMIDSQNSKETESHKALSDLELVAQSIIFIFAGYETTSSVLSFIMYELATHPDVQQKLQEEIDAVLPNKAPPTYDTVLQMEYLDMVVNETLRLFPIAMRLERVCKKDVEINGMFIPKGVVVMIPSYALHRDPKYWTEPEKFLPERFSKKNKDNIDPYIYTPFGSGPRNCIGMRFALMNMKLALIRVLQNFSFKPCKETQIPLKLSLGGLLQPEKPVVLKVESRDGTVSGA

[13] = GLP functional observation battery in rats; assay type: in vivo; conditions: doses through 300 mg/kg
From the text: as §2

Raji cells = experiment: Rituximab ADCC 51Cr release, healthy donor NK cells vs Raji cells; assay type: cell-based, human; conditions: 1 μM, E:T 25:1
[14] = test system: canine spontaneous B-cell lymphoma; conditions: out of 8 dogs treated; Honigberg et al. 2010; cited from earlier work
[15] = within the tested dose range; cited from earlier work

## C=CC(=O)Nc1cccc(Nc2nc(Nc3ccc(OCCOC)cc3)ncc2F)c1 [CC-292, N-(3-((5-fluoro-2-((4-(2-methoxyethoxy)phenyl)amino)pyrimidin-4-yl)amino)phenyl)acrylamide, reference compound]
[1]
  effect on human platelet-mediated thrombus formation: effect similar to ibrutinib

## CC#CC(=O)N1CCC[C@H]1c1nc(-c2ccc(C(=O)Nc3ccccn3)cc2)c2c(N)nccn12 [Formula (II), (S)-4-(8-amino-3-(1-(but-2-ynoyl)pyrrolidin-2-yl)imidazo[1,5-a]pyrazin-1-yl)-N-(pyridin-2-yl)benzamide]
NK cells
  reduction of rituximab-stimulated NK cell degranulation: < 2%
Th17 cells
  effect on Th17 cells: no adverse effect
relapsed/refractory CLL; All (N = 44)
  Grade of Diarrhea: 1
  Grade of Headache: ½
  Grade of Increased tendency to bruise: 1
  Grade of Petechiae: 1
  Treatment-related adverse event: Diarrhea: 4 (9) n (%)
  Treatment-related adverse event: Headache: 7 (16) n (%)
  Treatment-related adverse event: Increased tendency to bruise: 6 (14) n (%)
  Treatment-related adverse event: Petechiae: 3 (7) n (%)
relapsed/refractory CLL; Kaplan-Meier, Log-Rank p-value 0.0206
  progression-free survival (PFS) in comparison to ibrutinib: An improvement in survival and a reduction in risk
relapsed/refractory CLL; relapsed/refractory CLL
  MTD: not reached
  dose-limiting toxicities (DLTs): No DLTs were observed
  grade of AEs observed: only grade 1 AEs were observed
  lymphocytosis: A lack of lymphocytosis
  treatment-related serious adverse events (SAEs): No treatment-related serious adverse events (SAEs) were observed
relapsed/refractory CLL; to date
  progression in patients with 17p deletion: no 17p patients have progressed
[2]
  in vivo potency at inhibiting expression of activation markers CD69 and CD86: more potent at inhibiting expression of activation makers than ibrutinib
EGFR phosphorylation
  inhibition of in vitro EGFR phosphorylation: no inhibition
[3]
  effect on Treg development: no adverse effects; also recorded: no effect
[4]
  inhibition of GPVI platelet aggregation: does not
[4]; Homo sapiens, Platelet, FIG. 16
  IC50: 1150 nM
[5]
  body temperature, cardiovascular, or ECG (including QT interval) parameters: no meaningful changes
CYP enzymes
  drug-drug interaction potential via CYP enzymes: very unlikely to cause clinical drug-drug interactions
[6]
  activity in binding screen of 80 targets: significant activity only against the A3 adenosine receptor
[7]
  metabolic processes: oxidation, glutathione binding, and hydrolysis
[1]
  effect on human platelet-mediated thrombus formation: no significant effect
[8]; hepatocytes
  unique human metabolite: No unique human metabolite was identified
[8]; mouse, rat, dog, rabbit, monkey, human hepatocytes
  metabolites in hepatocytes: two mono-oxidized metabolites and a glutathione conjugate
[9]
  drug-related adverse events: No drug-related adverse events
[9]; average 22 days, preliminary
  partial remission (PR): 2 of 6
[10]
  frequency of NK cells and monocytic MDSC subsets in peripheral blood: increase in frequency in the peripheral blood
[11]
  respiratory function: no treatment-related adverse effects
[12]
  glutathione binding / depletion: binds to glutathione but does not deplete glutathione
CYP3A4
  CYP responsible for metabolism: metabolized by CYP3A4
[13]
  neurobehavioral effects or body temperature: no adverse effects

## C=CC(=O)N1CCC[C@@H](n2nc(-c3ccc(Oc4ccccc4)cc3)c3c(N)ncnc32)C1 [Ibrutinib, 1-[(3R)-3-[4-amino-3-(4-phenoxyphenyl)-1H-pyrazolo[3,4-d]pyrimidin-1-yl]piperidin-1-yl]prop-2-en-1-one, reference compound]
Raji cells
  effect on rituximab-mediated ADCC against Raji cells: strongly inhibited
Th17 cells
  effect on Th17 cells: profound inhibition of Th17 cells; also recorded: strongly inhibits Th17 cells
[3]
  effect on Treg development: increase in Treg development; also recorded: strongly increases Treg development
[14]
  dogs with PR: 3 dogs
[4]
  inhibition of GPVI platelet aggregation: significantly inhibits GPVI platelet aggregation
[15]
  maximum tolerated dose (MTD): No maximum tolerated dose (MTD) was apparent
